Measured values published in patent US10450573B2, “Compositions and methods for regulation of gene expression with, and detection of, folinic acid and folates” (The Board of Trustees of the Leland Stanford Junior …, priority 2014, dated 2019).

B1: tFA8-18: truncated (6S)-FA specific RNA aptamer, SEQ ID NO: 23 (nucleic acid)
chain: CUCGUCAAUGCAUAUGUAACGUUAACGGCGCUACCUGUACAAUGCACGUUCCGAGCGCCCGGAGACGAG
modifications: unmodified RNA
B2: L2b8: parent theophylline-responsive ribozyme switch, SEQ ID NO: 43 (nucleic acid)
chain: AAACAAACAAAGCTGTCACCGGATGTGCTTTCCGGTCTGATGAGTCCGTTGTCCATACCAGCATCGTCTTGATGCCCTTGGCAGGGACGGGACGGAGGACGAAACAGCAAAAAGAAAAATAAAAA
modifications: listed as DNA, chemistry not fully specified

Legend:
[1] = cited from earlier work; for concentration that can accumulate in human blood plasma: intravenous infusion
[2] = SPR binding to (6R,S)-5-formyl-5,6,7,8-tetrahydropteroic acid; conditions: ligand is mixture of (6R) and (6S) diastereomers; for Kd: read-out: KD, (6R,S)-5-formyl-THPteroic Acid
[3] = Surface plasmon resonance aptamer binding assay, (6S)-folinic acid; conditions: SPR, 25° C., selection buffer pH 7.4, 5 mM MgCl2; for ka, (6S)-Folinic Acid / kd, (6S)-Folinic Acid: 1:1 binding model
Description: (§1) Surface plasmon resonance characterization of aptamer binding properties. Nucleic acid aptamer preparation. RNA aptamers were prepared by PCR amplification of DNA template sequences (Table 4, Integrated DNA Technologies, Coralville, Iowa) using forward and reverse primers Biacore-fwd and Biacore-rev, respectively, followed by transcription of the PCR product using the MEGAshortscript T7 transcription kit (Life Technologies) and purification of the transcription product using the RNA Clean & Concentrator kit (Zymo Research, Irvine, Calif.), according to the manufacturers' instructions. Aptamers were resuspended in selection buffer, denatured at 65° C. for 5 min, and cooled to room temperature directly before use.
(§2) Sensor chip surface generation. Experiments were performed on a Biacore X100 instrument (GE Healthcare) at 25° C. A CM5 sensor chip (GE Healthcare) was equilibrated with HBS-N buffer. The DNA linker strand (5′-AmMC6-[…]) (Integrated DNA Technologies) (SEQ ID NO:133), with an amino modified 6-carbon linker on the 5′ end, was immobilized to the chip surface. The carboxymethylated dextran surface of the CM5 chip was activated for 7 min at a flow rate of 10 μL/min using a 1:1 volume ratio of 0.4 M 1-ethyl-3-(3-dimethylaminopropyl) carbodiimide (GE Healthcare) and 0.1 M N-hydroxysuccinimide (GE Healthcare). A molar ratio of 1:30 of DNA strand to hexadecyltrimethylammonium bromide (Sigma-Aldrich, St. Louis, Mo.) was diluted in 10 mM HEPES buffer (Sigma-Aldrich) to a final concentration of 20 μM and 0.6 mM, respectively, and injected over the activated surface for 10 min at a flow rate of 5 μL/min. Excess activated groups were blocked by an injection of 1 M ethanolamine (GE Healthcare), pH 8.5, for 7 min at a flow rate of 10 μL/min. The immobilization reaction was performed sequentially on both flow cells (FC1, FC2) and yielded approximately 4,000 RU of the DNA strand.
(§3) Aptamer binding assay. The Biacore X100 instrument was primed three times with running buffer prior to all binding assays. For each assay, three startup cycles were performed to stabilize the sensorgram baseline. For each startup cycle, the aptamer (˜40-70 ng/μL, ˜3 μM) was captured onto the sample flow cell (FC2) for 40 s at a flow rate of 5 μL/min. 25 mM NaOH (GE Healthcare) was injected for 30 s at a flow rate of 30 μL/min over both flow cells to regenerate the sensor surface. A dilution series of (6R)- or (6S)-folinic acid (Schircks Laboratories, Jona, Switzerland) was prepared in selection buffer and filtered through a 0.2 μm membrane (Pall Corporation, Port Washington, N.Y.). For each concentration sample, the aptamer was captured onto the sample flow cell (FC2) for 40 s at a flow rate of 5 μL/min, the folinic acid solution was injected over both flow cells at a flow rate of 30 μL/min to monitor target association, and selection buffer was injected over both flow cells at a flow rate of 30 μL/min to monitor target dissociation. Association and dissociation phase lengths used were chosen based on time needed to reach equilibrium. Aptamer and folinic acid were removed from the sensor surface by injecting 25 mM NaOH for 30 s at a flow rate of 30 μL/min over both flow cells.
(§4) Data processing and analysis were performed using Biacore X100 Evaluation Software version 2.0 (GE Healthcare). A double-referencing method was performed to process all datasets. Data from the sample flow cell (FC2) were referenced first by subtracting data from the reference flow cell (FC1) to correct for bulk refractive index changes, nonspecific binding, injection noise, matrix effects, and baseline drift. Reference-subtracted data (FC2−FC1) were double-referenced with a blank injection of running buffer to account for any systematic drift over the course of the injection. Double-referenced data were fit to a 1:1 binding model for kinetic analysis or steady-state affinity model for thermodynamic analysis. […]

[4] = Surface plasmon resonance aptamer binding assay, (6R)-folinic acid; conditions: for ka, (6R)-Folinic Acid / kd, (6R)-Folinic Acid / Kd: SPR, 25° C., selection buffer pH 7.4, 5 mM MgCl2; for ka, (6R)-Folinic Acid / kd, (6R)-Folinic Acid: 1:1 binding model; for Selectivity: between (6R)- and (6S)-folinic acid diastereomers
Description: as §1, §2, §3, §4

[5] = SPR binding to (6R,S)-5-methyl-5,6,7,8-tetrahydrofolic acid; conditions: ligand is mixture of (6R) and (6S) diastereomers; for Kd: read-out: KD, (6R,S)-5-methyl-THF
[6] = system: GFP expression; assay: Gene-regulatory activity of ribozyme-based switches in yeast (GFP, flow cytometry); type: cell-based, Saccharomyces cerevisiae; conditions: normalized to sTRSV Contl
Description: Plasmid and strain construction. Standard molecular biology cloning techniques were used to construct all plasmids. DNA synthesis was performed by Integrated DNA Technologies (Coralville, Iowa) or the Protein and Nucleic Acid Facility (Stanford, Calif.). All enzymes, including restriction enzymes and ligases, were obtained through New England Biolabs (Ipswich, Mass.). Ligation products were electroporated with a GenePulser XCell (Bio-Rad, Hercules, Calif.) into an E. coli DH10B strain (Invitrogen, Carlsbad, Calif.), where cells harboring cloned plasmids were maintained in Luria-Bertani media containing 50 μg/mL ampicillin (EMD Chemicals, Philadelphia, Pa.). […]
The two-color screening plasmid pCS1748; single-color plasmids harboring GFP (pCS1585) and mCherry (pCS1749) for use as compensation controls; and no-color plasmid pCS4, containing no fluorescence reporter gene, was used as the negative-control construct. […]
Cell sorting screen for functional ligand-responsive RNA switches. […] Transformation efficiencies were determined by plating serial dilutions of the transformants, and transformed cells were propagated in SC-URA media for FACS.
Two-color FACS-based screen. […] GFP was excited at 488 nm and measured with a splitter of 505 nm and bandpass filter of 525/50 nm. mCherry was excited at 532 nm and measured with a splitter of 600 nm and a bandpass filter of 610/20 nm. […]

Row | Molecule | plasma concentration compared to the (6S) diastereomer ([1]; in vivo) | plasma half-life compared to the (6S) diastereomer ([1]; in vivo) | concentration that can accumulate in human blood plasma [1] | ka, (6R,S)-5-formyl-THPteroic Acid [2] | kd, (6R,S)-5-formyl-THPteroic Acid [2] | Kd [2] | ka, (6S)-Folinic Acid [3] | kd, (6S)-Folinic Acid [3] | Kd [3] | ka, (6R)-Folinic Acid [4] | kd, (6R)-Folinic Acid [4] | Kd [4] | Selectivity [4] | ka, (6R,S)-5-methyl-THF [5] | kd, (6R,S)-5-methyl-THF [5] | Kd [5] | normalized GFP expression ([6]; absence of theophylline) | normalized GFP expression ([6]; presence of 5 mM theophylline)
1 | Nc1nc2c(c(=O)[nH]1)N(C=O)[C@H](CNc1ccc(C(=O)N[C@@H](CCC(=O)O)C(=O)O)cc1)CN2 [(6R)-folinic acid] | ≤ 18 fold | up to 15 fold | up to 77.6 μM |  |  |  |  |  |  |  |  |  |  |  |  |  |  | 
2 | tFA8-4: truncated (6R)-FA specific RNA aptamer, SEQ ID NO: 18 (GCUUGGCGUUGCGUGGUACGUUAUAUUCCGGCCAAGC; unmodified RNA) |  |  |  | 135000 M⁻¹ s⁻¹ | 0.00494 s⁻¹ | 0.0366 µM | 21100 M⁻¹ s⁻¹ | 0.105 s⁻¹ | 4.98 µM | 269000 M⁻¹ s⁻¹ | 0.00515 s⁻¹ | 0.0192 µM | 260 | 33500 M⁻¹ s⁻¹ | 0.211 s⁻¹ | 6.29 µM |  | 
3 | tFA6-8: truncated (6R)-FA specific RNA aptamer, SEQ ID NO: 21 (UUCCCGUCAGGUACGUUAUAUUCGGGGGA; unmodified RNA) |  |  |  |  |  |  | 2330 M⁻¹ s⁻¹ | 0.297 s⁻¹ | 128 µM | 77900 M⁻¹ s⁻¹ | 0.0176 s⁻¹ | 0.225 µM | 567 |  |  |  |  | 
4 | tFA8-16: truncated (6R)-FA specific RNA aptamer, SEQ ID NO: 22 (CUCCUUCCGGUGACCUGGACGUUAUUUCCGGCCGAAGGGAG; unmodified RNA) |  |  |  |  |  |  | 682 M⁻¹ s⁻¹ | 0.85 s⁻¹ | 1250 µM | 33000 M⁻¹ s⁻¹ | 0.0602 s⁻¹ | 1.82 µM | 684 |  |  |  |  | 
5 | tFA8-11: truncated (6R)-FA specific RNA aptamer, SEQ ID NO: 20 (UGCAGUGCUUGGUACGUUAUAUUCAGCUGCA; unmodified RNA) |  |  |  | 750000 M⁻¹ s⁻¹ | 0.00568 s⁻¹ | 0.0757 µM | 6560 M⁻¹ s⁻¹ | 0.227 s⁻¹ | 34.6 µM | 116000 M⁻¹ s⁻¹ | 0.00468 s⁻¹ | 0.0405 µM | 855 | 14300 M⁻¹ s⁻¹ | 0.195 s⁻¹ | 13.6 µM |  | 
6 | tFA10-7: truncated (6S)-FA specific RNA aptamer, SEQ ID NO: 24 (ACGGCGAAGAGUCAAAGCAUCCCCUGCGAAAGCAGGGCCCGU; unmodified RNA) |  |  |  | 35200 M⁻¹ s⁻¹ | 0.00697 s⁻¹ | 0.198 µM | 53600 M⁻¹ s⁻¹ | 0.00775 s⁻¹ | 0.144 µM |  |  | 74.4 µM | 515 |  |  | 81.8 µM |  | 
7 | Nc1nc(=O)c2c([nH]1)NC[C@H](CNc1ccc(C(=O)N[C@@H](CCC(=O)O)C(=O)O)cc1)N2C=O [(6S)-folinic acid] |  |  | ≤ 7.95 µM |  |  |  |  |  |  |  |  |  |  |  |  |  |  | 
8 | B1 |  |  |  | 53200 M⁻¹ s⁻¹ | 0.00633 s⁻¹ | 0.119 µM | 36100 M⁻¹ s⁻¹ | 0.00227 s⁻¹ | 0.0628 µM | 94 M⁻¹ s⁻¹ | 0.00355 s⁻¹ | 37.7 µM | 600 |  |  | 447 µM |  | 
9 | B2 |  |  |  |  |  |  |  |  |  |  |  |  |  |  |  |  | ~10.8% | ~36.7%
